# Results: paper PMC4643906, “Interaction of the N-(3-Methylpyridin-2-yl)amide Derivatives of Flurbiprofen and Ibuprofen with FAAH: Enantiomeric Selectivity and Binding Mode” (PLoS ONE, 2015)
# Numbering of substitutions follows the chain as printed. Like-named read-outs stand apart in the source and are kept apart here.
# Assays:
# rat brain FAAH = molecular target: T1, rat brain FAAH (Rattus norvegicus, UniProt P97612); test: Inhibition of [3H]AEA hydrolysis in rat brain homogenates; format: biochemical; conditions: for remaining activity at 0.7 µM: 0.7 μM inhibitor; for mode of inhibition (best-fit model) / α / Ki: 0.5–4 μM [3H]AEA; for mode of inhibition (best-fit model): compared with pure competitive model; for interaction with carprofen in multiple inhibition experiments: Dixon plots, together with carprofen
# T1 construct: from tissue; host or cells: rat brain (minus cerebellum), washed membrane pellet
# T1 sequence (P97612 1-579): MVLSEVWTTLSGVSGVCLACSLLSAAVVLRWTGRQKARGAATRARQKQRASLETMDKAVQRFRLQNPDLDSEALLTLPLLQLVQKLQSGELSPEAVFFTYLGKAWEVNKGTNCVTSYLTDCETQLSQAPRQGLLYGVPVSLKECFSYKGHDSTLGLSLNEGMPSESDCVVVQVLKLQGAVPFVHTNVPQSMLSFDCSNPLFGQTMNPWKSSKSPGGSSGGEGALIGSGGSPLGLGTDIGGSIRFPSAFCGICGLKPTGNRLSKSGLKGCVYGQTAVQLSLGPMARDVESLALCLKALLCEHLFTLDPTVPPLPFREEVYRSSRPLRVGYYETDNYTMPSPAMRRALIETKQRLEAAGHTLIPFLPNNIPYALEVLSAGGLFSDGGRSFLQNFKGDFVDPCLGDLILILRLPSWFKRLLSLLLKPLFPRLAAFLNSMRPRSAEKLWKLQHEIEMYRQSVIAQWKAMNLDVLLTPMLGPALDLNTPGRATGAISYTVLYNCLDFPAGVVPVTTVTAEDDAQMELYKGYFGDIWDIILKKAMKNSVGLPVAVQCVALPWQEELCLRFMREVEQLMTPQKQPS
# Description: (§1) Brains (minus cerebella) from adult Wistar or Sprague-Dawley rats (killed by decapitation) and from male B6CBAF1/J mice (killed by cervical dislocation), stored at -80°C, were thawed, weighed and homogenized in cold buffer (20 mM HEPES, 1 mM MgCl2 pH 7.0). Homogenates were centrifuged (35,000 g at 4°C for 20 min) before the pellet was resuspended in cold homogenization buffer. Centrifugation and resuspension was repeated twice. The suspension was incubated at 37°C for 15 min to degrade any endogenous substrate able to interfere with the FAAH assay. After centrifugation (35,000 g at 4°C for 20 min), the pellet was resuspended in cold buffer (50 mM Tris-HCl, 1mM EDTA, 3 mM MgCl2, pH 7.4). The protein concentration was determined according to [27] after which the samples were frozen in aliquots at -80°C.
# (§2) The assays were performed according to [28] with minor modifications. Briefly, homogenates or cell lysates in assay buffer (10 mM Tris-HCl, 1mM EDTA, pH 7.4) were mixed with substance dissolved in ethanol on ice. Hydrolysis reactions were initiated by addition of substrate ([^3H]AEA in 10 mM Tris-HCl, 1mM EDTA, pH 7.4 containing 10 mg ml^-1 fatty acid-free bovine serum, assay concentration 0.5 μM unless otherwise stated) and incubation at 37°C. For the brain homogenates, hydrolysis at 37°C was allowed to proceed for 10 min (assay volume was 200 μL, with 1 and 0.3 μg/assay protein concentrations of the rat and mouse homogenates, respectively). For the kinetic experiments, the AEA: fatty acid-free bovine serum albumin ratio was kept constant at 1: ~4.5 (μM). Following incubation, reactions were stopped by addition of 400 μL activated charcoal (80 μL activated charcoal + 320 μL 0.5 M HCl) and placement of samples on ice before centrifugation at 2500 rpm for 10 min. Aliquots (200 μL) of the supernatant were analyzed for tritium content by liquid scintillation spectroscopy with quench correction. Sample sizes were chosen on the basis of previous data investigating FAAH inhibitory properties of compounds.
# (§3) pI50 and IC50 values were calculated using log(inhibitor) vs. response with variable slope (four parameters) algorithm in the GraphPad Prism computer program (GraphPad Software Inc., San Diego, CA. USA). […] The best fit was chosen by Akaike’s informative criteria. Ki and α values were obtained using the enzyme kinetics mixed model inhibition curve fitting algorithm available in the GraphPad Prism programme. This models the observed velocity v^app at a given substrate concentration where v^app = Vmax ^app/(1 + Km ^app/[S]), Vmax ^app = Vmax/(1+[I]/(αKi)) and Km ^app = Km(1+[I]/Ki)/(1+[I]/(αKi)) (http://www.graphpad.com/guides/prism/6/curve-fitting/index.htm?reg_mixered_model.htm, URL checked 16 October 2015). The model assuming competitive interactions (where α→∞) was also used, and the best fit was chosen by Akaike’s informative criteria. Robust linear regressions for the Dixon plots, which are less sensitive to outliers than the standard least-squares methodology were undertaken using the same computer programme.
# FAAH^T488A = molecular target: T2, FAAH^T488A (Rattus norvegicus, UniProt P97612, T488A); test: Inhibition of [3H]AEA hydrolysis in lysates of HeLa cells expressing FAAH^T488A; format: biochemical; conditions: FAAH^T488A lysate 0.4 μg/assay, 18 h, 0.5 μM [3H]AEA
# T2 construct: expressed in transfected cells; host or cells: HeLa cells, pcDNA4 plasmid, lysate
# T2 sequence (P97612 1-579 T488A): T1 sequence (P97612 1-579) with T488A
# [1] = molecular target: T3, rat wild-type FAAH (FAAH^wt) (Rattus norvegicus, UniProt P97612); test: Inhibition of [3H]AEA hydrolysis in lysates of HeLa cells expressing wild-type FAAH; format: biochemical
# T3 construct: expressed in transfected cells; host or cells: HeLa cells, pcDNA4 plasmid, lysate
# T3 sequence (P97612 1-579): T1 sequence (P97612 1-579)
# mouse brain FAAH [2] = molecular target: T4, mouse brain FAAH (Mus musculus, UniProt O08914); design: method as in PMID 26406890; conditions: cited from earlier work; for IC50 / pI50: mouse brain homogenates
# T4 construct: from tissue; host or cells: mouse brain (minus cerebellum), washed membrane pellet
# T4 sequence (O08914 1-579): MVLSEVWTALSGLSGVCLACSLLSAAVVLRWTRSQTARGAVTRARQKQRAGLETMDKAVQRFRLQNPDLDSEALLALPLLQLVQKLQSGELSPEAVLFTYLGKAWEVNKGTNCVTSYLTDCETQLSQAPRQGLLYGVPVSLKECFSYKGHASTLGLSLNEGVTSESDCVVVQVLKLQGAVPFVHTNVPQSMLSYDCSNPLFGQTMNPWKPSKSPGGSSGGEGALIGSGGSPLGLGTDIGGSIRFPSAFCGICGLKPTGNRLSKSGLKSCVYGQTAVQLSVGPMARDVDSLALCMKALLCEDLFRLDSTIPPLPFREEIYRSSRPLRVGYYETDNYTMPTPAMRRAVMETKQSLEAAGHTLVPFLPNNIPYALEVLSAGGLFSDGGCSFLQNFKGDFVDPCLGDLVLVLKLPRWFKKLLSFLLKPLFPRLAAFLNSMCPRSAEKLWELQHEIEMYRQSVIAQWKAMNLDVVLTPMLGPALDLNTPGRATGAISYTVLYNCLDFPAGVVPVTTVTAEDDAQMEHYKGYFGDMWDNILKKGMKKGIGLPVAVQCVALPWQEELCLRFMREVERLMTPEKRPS
# mouse brain FAAH [3] = molecular target: T4, mouse brain FAAH; test: Inhibition of [3H]AEA hydrolysis in mouse brain homogenates; format: biochemical; conditions: 0.5 μM [3H]AEA
# Description: as §1, §2, §3
# [4] = rat brain homogenates, 0.5 μM [3H]AEA, read-out: IC50
# [5] = rat brain homogenates, 0.5 μM [3H]AEA, read-out: pI50 (converted)
# [6] = FAAH^wt + empty vector (0.36 μg/assay) lysates, 18 h, 0.5 μM [3H]AEA
# [7] = FAAH^wt lysate 0.04 μg/assay, 18 h, 0.5 μM [3H]AEA
# [8] = preliminary experiments, another batch of wild-type FAAH, 1.5–2 μg/assay, 20 min at 37°C, read-out: potencies
# [9] = linear mixed inhibition model fit
# [10] = linear mixed inhibition model fit, read-out: Ki
# [11] = median of Dixon plot intersections, read-out: Ki (Dixon plot)
# [12] = rat brain homogenates, 0.5 μM [3H]AEA
SMILES,IC50 (rat brain FAAH; [4]) [µM],IC50 (rat brain FAAH; [5]) [µM],"IC50 [1, 8] [µM]",α (rat brain FAAH; [9]),Ki (rat brain FAAH; [10]) [µM],Ki (rat brain FAAH; [11]) [µM],nH (Hill slope) (rat brain FAAH; [12]),nH (Hill slope) (mouse brain FAAH [3]),also measured
"Cc1cccnc1NC(=O)[C@H](C)c1ccc(-c2ccccc2)c(F)c1 [(R)-Flu-AM1, (R)-2-(2-fluorobiphenyl-4-yl)-N-(3-methylpyridin-2-yl)propanamide]",0.74,0.741,1.6,3.2±1.3,0.63 ± 0.17,0.28,0.90±0.04,0.78±0.09,"nH (FAAH^T488A): 1.47±0.37; IC50 (FAAH^T488A; read-out: IC50): 28 µM; IC50 (FAAH^T488A; read-out: pI50 (converted)): 28.2 µM; nH [1, 6]: 0.99±0.06; IC50 ([1]; FAAH^wt + empty vector (0.36 μg/assay) lysates, 18 h, 0.5 μM [3H]AEA, read-out: IC50): 8 µM; IC50 ([1]; FAAH^wt + empty vector (0.36 μg/assay) lysates, 18 h, 0.5 μM [3H]AEA, read-out: pI50 (converted)): 7.94 µM; nH [1, 7]: 1.02±0.07; IC50 ([1]; FAAH^wt lysate 0.04 μg/assay, 18 h, 0.5 μM [3H]AEA, read-out: IC50): 8.3 µM; IC50 ([1]; FAAH^wt lysate 0.04 μg/assay, 18 h, 0.5 μM [3H]AEA, read-out: pI50 (converted)): 8.32 µM; mode of inhibition (mouse brain FAAH [2]; mouse brain FAAH): competitive; IC50 (mouse brain FAAH [2]): 8.8 µM; pI50 (mouse brain FAAH [2]): 5.05±0.06; remaining activity at 0.7 µM (rat brain FAAH; preincubation 0 min at 37°C): 50 ± 1%; remaining activity at 0.7 µM (rat brain FAAH; preincubation 60 min at 37°C): 39 ± 4%; mode of inhibition (best-fit model) (rat brain FAAH): linear mixed inhibition; reversibility of inhibition (rat brain FAAH; 20-fold dilution after 60 min of preincubation): completely reversible; interaction with carprofen in multiple inhibition experiments (rat brain FAAH; 0.5 μM [3H]AEA): mutually exclusive manner"
Cc1cccnc1NC(=O)[C@@H](C)c1ccc(-c2ccccc2)c(F)c1 [(S)-Flu-AM1],0.99,1,2.4,5.6±3.6,0.79 ± 0.28,0.86,0.94±0.04,1.31±0.16,IC50 (mouse brain FAAH [2]): 11 µM; pI50 (mouse brain FAAH [2]): 4.96±0.04; mode of inhibition (best-fit model) (rat brain FAAH): linear mixed inhibition
"CC(C(=O)O)c1ccc2c(c1)[nH]c1ccc(Cl)cc12 (stereo not shown) [Carprofen, reference compound]",,,,,,,1.66±0.13,,"nH (FAAH^T488A): 2.43±0.37; nH [1, 6]: 4.28±0.41; nH [1, 7]: 3.00±0.31; maximum inhibition (best fit) ([1]; wild-type FAAH lysates, 18 h): 82–91%"

# Second part, led by results:
IC50 (rat brain FAAH; [4]) [µM],IC50 (rat brain FAAH; [5]) [µM],"IC50 [1, 8] [µM]",α (rat brain FAAH; [9]),Ki (rat brain FAAH; [10]) [µM],Ki (rat brain FAAH; [11]) [µM],nH (Hill slope) (rat brain FAAH; [12]),nH (Hill slope) (mouse brain FAAH [3]),SMILES,also measured
1.2,1.2,,,,,,,"Cc1cccnc1NC(=O)C(C)c1ccc(CC(C)C)cc1 (racemic) [racemic Ibu-AM5, 2-(4-Isobutylphenyl)-N-(3-methylpyridin-2-yl)propanamide]",
5.7,5.62,8.8,3.1±1.1,10 ± 2.5,9.8,1.05±0.10,1.50±0.36,"Cc1cccnc1NC(=O)[C@H](C)c1ccc(CC(C)C)cc1 [(R)-Ibu-AM5, 2-(4-Isobutylphenyl)-N-(3-methylpyridin-2-yl)propanamide]","fold less potent an inhibitor of FAAH than the (S)-enantiomer (rat brain FAAH; rat FAAH): 10 fold; inhibition (rat brain FAAH; rat brain homogenates, 0.5 μM [3H]AEA, read-out: maximum inhibition (best fit)): 92%; IC50 (mouse brain FAAH [3]; read-out: IC50): 53 µM"
0.59,0.589,0.53,3.2±1.5,0.8 ± 0.21,0.89,0.81±0.08,1.33±0.38,"Cc1cccnc1NC(=O)[C@@H](C)c1ccc(CC(C)C)cc1 [(S)-Ibu-AM5, 2-(4-Isobutylphenyl)-N-(3-methylpyridin-2-yl)propanamide]",interaction with carprofen in multiple inhibition experiments (rat brain FAAH; 0.5 μM [3H]AEA): mutually exclusive manner; IC50 (mouse brain FAAH [3]; read-out: IC50): 7 µM; IC50 (mouse brain FAAH [3]; read-out: pI50 (converted)): 6.92 µM
68,67.6,,,,,,,"Cc1cccnc1NC(=O)Cc1ccc(CC(C)C)cc1 [Ibufenac-AM1, 2-(4-Isobutylphenyl)-N-(3-methylpyridin-2-yl)acetamide]",
